ChEMBL document CHEMBL4673259, “Discovery of isoquinolinone and naphthyridinone-based inhibitors of poly(ADP-ribose) polymerase-1 (PARP1) as anticancer agents: Structure activity relationship and preclinical characterization” (Bioorg Med Chem, 2020)

Experiments:
[1] = biological target: T1, Poly [ADP-ribose] polymerase 1 (Homo sapiens, UniProt P09874); experiment: Inhibition of PARP1 in human MDA-MB-436 cells assessed as inhibition of PARylation at 10 nM incubated for 1 hr by chemiluminescence assay; type: cell-based
T1 sequence (P09874 whole entry): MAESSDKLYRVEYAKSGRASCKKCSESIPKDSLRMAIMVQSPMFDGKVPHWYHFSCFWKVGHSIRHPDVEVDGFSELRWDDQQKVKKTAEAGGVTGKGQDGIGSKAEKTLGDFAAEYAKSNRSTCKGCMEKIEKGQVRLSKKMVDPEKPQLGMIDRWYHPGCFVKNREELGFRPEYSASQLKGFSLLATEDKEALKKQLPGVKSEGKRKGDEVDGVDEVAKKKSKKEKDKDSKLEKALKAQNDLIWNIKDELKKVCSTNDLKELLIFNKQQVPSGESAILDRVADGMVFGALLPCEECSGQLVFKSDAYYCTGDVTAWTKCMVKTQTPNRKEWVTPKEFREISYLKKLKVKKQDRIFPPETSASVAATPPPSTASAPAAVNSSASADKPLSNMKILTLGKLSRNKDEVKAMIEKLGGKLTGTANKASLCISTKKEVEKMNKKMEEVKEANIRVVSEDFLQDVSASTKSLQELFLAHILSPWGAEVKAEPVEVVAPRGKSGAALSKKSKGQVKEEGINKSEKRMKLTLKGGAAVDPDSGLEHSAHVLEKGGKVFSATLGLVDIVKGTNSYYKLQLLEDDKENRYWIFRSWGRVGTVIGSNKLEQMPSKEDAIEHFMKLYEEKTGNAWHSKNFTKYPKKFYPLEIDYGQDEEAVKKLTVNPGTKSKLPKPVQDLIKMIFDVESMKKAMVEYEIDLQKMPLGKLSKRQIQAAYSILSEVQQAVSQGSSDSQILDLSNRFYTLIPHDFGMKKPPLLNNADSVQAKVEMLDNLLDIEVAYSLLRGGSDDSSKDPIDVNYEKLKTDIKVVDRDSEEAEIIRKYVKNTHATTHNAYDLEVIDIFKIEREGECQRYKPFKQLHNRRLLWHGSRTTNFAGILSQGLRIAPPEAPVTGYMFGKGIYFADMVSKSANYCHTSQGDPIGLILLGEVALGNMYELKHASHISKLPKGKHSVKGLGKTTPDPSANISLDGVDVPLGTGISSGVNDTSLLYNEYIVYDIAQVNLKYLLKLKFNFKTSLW

MCF7 = experiment: Cytotoxicity against human MCF7 cells harboring wild type BRCA at 1000 nM relative to control; type: cell-based; details: mcf7, 1 µM
HEK293 [2] = experiment: Cytotoxicity against HEK293 cells at 1000 nM relative to control; type: cell-based; details: human, hek293, 1 µM
MDA-MB-436 [3] = experiment: Anticancer activity against human MDA-MB-436 cells harboring BRCA mutant xenografted in SCID/nude mouse assessed as tumor growth regression at 0.15 mg/kg, po bid and measured up to 5 weeks post-drug administration; type: functional; details: MDA-MB-436, po, 840 h, time weeks <=5
[4] = Toxicity in SCID/nude mouse xenografted with human MDA-MB-436 cells harboring BRCA mutant assessed as body weight loss at 0.15 mg/kg, po bid; type: organism-based; details: in vivo
[5] = Toxicity against SCID/nude mouse xenografted with human MDA-MB-436 cells harboring BRCA mutant assessed as body weight loss at 0.15 mg/kg, po bid for 12 days co-administered with 35 mg/kg, po TMZ; type: organism-based; details: in vivo, 288 h, time 12 day
[6] = Toxicity against SCID/nude mouse xenografted with human CAPAN-1 cells harboring BRCA mutant assessed as body weight loss at 0.15 mg/kg, po bid for 12 days co-administered with 35 mg/kg, po TMZ; type: organism-based; details: in vivo, 288 h, time 12 day
[7] = Toxicity against SCID/nude mouse xenografted with human SK-ES-1 cells harboring EWSF1 translocation assessed as body weight loss at 0.15 mg/kg, po bid for 12 days co-administered with 35 mg/kg, po TMZ; type: organism-based; details: in vivo, 288 h, time 12 day
[8] = Toxicity against SCID/nude mouse xenografted with human MDA-MB-436 cells harboring BRCA mutant assessed as hypothermia at 0.15 mg/kg, po bid for 12 days co-administered with 35 mg/kg, po TMZ; type: organism-based; details: in vivo, 288 h, time 12 day
[9] = Toxicity against SCID/nude mouse xenografted with human CAPAN-1 cells harboring BRCA mutant assessed as hypothermia at 0.15 mg/kg, po bid for 12 days co-administered with 35 mg/kg, po TMZ; type: organism-based; details: in vivo, 288 h, time 12 day
[10] = Toxicity against SCID/nude mouse xenografted with human SK-ES-1 cells harboring EWSF1 translocation assessed as hypothermia at 0.15 mg/kg, po bid for 12 days co-administered with 35 mg/kg, po TMZ; type: organism-based; details: in vivo, 288 h, time 12 day
[11] = Toxicity against SCID/nude mouse xenografted with human MDA-MB-436 cells harboring BRCA mutant assessed as body weight loss at 0.15 mg/kg, po bid for 12 days co-administered with lower dose of TMZ; type: organism-based; details: in vivo, 288 h, time 12 day
[12] = Toxicity against SCID/nude mouse xenografted with human CAPAN-1 cells harboring BRCA mutant assessed as body weight loss at 0.15 mg/kg, po bid for 12 days co-administered with lower dose of TMZ; type: organism-based; details: in vivo, 288 h, time 12 day
[13] = Toxicity against SCID/nude mouse xenografted with human SK-ES-1 cells harboring EWSF1 translocation assessed as body weight loss at 0.15 mg/kg, po bid for 12 days co-administered with lower dose of TMZ; type: organism-based; details: in vivo, 288 h, time 12 day
[14] = biological target: T1, Poly [ADP-ribose] polymerase 1; experiment: Inhibition of N-terminal GST-tagged human full length PARP1 (2 to 1041 residues) expressed in baculovirus infected Sf9 cells using histone mixture (H2A and H2B) and biotinylated NAD+ as substrate in presence of activated DNA incubated for 60 mins by chemiluminescence assay
[15] = biological target: Poly [ADP-ribose] polymerase 2 (Homo sapiens, UniProt Q9UGN5); experiment: Inhibition of N-terminal GST-tagged human PARP2 (2 to 583 residues) expressed in baculovirus infected Sf9 cells using histone mixture (H2A and H2B) and biotinylated NAD+ as substrate in presence of activated DNA incubated for 60 mins by chemiluminescence assay
Sequence of Poly [ADP-ribose] polymerase 2 (Q9UGN5 whole entry, the tested form may be a part): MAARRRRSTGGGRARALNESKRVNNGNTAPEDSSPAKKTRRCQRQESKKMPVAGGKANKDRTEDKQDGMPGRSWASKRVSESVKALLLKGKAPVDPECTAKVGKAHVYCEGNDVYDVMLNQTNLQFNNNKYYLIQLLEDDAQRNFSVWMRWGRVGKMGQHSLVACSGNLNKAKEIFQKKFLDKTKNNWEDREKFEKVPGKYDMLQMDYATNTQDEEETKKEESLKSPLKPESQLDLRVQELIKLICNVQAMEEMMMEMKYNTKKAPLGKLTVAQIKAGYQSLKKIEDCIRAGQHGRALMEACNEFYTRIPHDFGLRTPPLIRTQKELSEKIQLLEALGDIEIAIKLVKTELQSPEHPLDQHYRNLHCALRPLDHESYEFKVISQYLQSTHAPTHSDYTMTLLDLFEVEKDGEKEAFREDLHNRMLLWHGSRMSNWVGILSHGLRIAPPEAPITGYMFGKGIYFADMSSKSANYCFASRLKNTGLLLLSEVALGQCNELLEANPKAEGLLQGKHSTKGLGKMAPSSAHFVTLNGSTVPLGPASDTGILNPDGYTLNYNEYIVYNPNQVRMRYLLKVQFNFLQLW

MDA-MB-436 [16] = experiment: Cytotoxicity against human MDA-MB-436 cells assessed as inhibition of cell viability incubated for 4 days by CellTiterGlo luminescence assay; details: MDA-MB-436, 96 h
MDA-MB-436 [17] = experiment: Cytotoxicity against human MDA-MB-436 cells assessed as inhibition of cell viability incubated for 14 days with three intermittent intervals by CellTiterGlo luminescence assay; details: MDA-MB-436, 336 h
[18] = Tmax in BALB/c mouse at 1 mg/kg, iv measured up to 24 hrs by LC-MS/MS analysis; type: ADME, organism-based; details: in vivo
[19] = Tmax in BALB/c mouse at 10 mg/kg, po measured up to 24 hrs by LC-MS/MS analysis; type: ADME, organism-based; details: in vivo
[20] = Cmax in BALB/c mouse at 1 mg/kg, iv measured up to 24 hrs by LC-MS/MS analysis; type: ADME, organism-based; parameters: route intravenous, dose 1 mg/kg, time <=24; details: in vivo
[21] = Cmax in BALB/c mouse at 10 mg/kg, po measured up to 24 hrs by LC-MS/MS analysis; type: ADME, organism-based; parameters: route oral, dose 10 mg/kg, time <=24; details: in vivo
[22] = AUClast in BALB/c mouse at 1 mg/kg, iv measured up to 24 hrs by LC-MS/MS analysis; type: ADME, organism-based; parameters: route intravenous, dose 1 mg/kg, time <=24; details: in vivo
[23] = AUClast in BALB/c mouse at 10 mg/kg, po measured up to 24 hrs by LC-MS/MS analysis; type: ADME, organism-based; parameters: route oral, dose 10 mg/kg, time <=24; details: in vivo
[24] = Half life in BALB/c mouse at 1 mg/kg, iv measured up to 24 hrs by LC-MS/MS analysis; type: ADME, organism-based; details: in vivo
[25] = Clearance in BALB/c mouse at 1 mg/kg, iv measured up to 24 hrs by LC-MS/MS analysis; type: ADME, organism-based; details: in vivo
[26] = Volume of distribution at steady state in BALB/c mouse at 1 mg/kg, iv measured up to 24 hrs by LC-MS/MS analysis; type: ADME, organism-based; details: in vivo, read-out: Vdss
[27] = Oral bioavailability in BALB/c mouse at 10 mg/kg measured up to 24 hrs by LC-MS/MS analysis; type: ADME, organism-based; details: in vivo
MDA-MB-436 [28] = experiment: Anticancer activity against human MDA-MB-436 cells harboring BRCA mutant xenografted in SCID/nude mouse assessed as tumor growth regression at 1.5 mg/kg, po bid and measured up to 5 weeks post-drug administration; type: functional; details: MDA-MB-436, po, 840 h, time weeks <=5
MDA-MB-436 [29] = experiment: Potentiation of anticancer activity against human MDA-MB-436 cells harboring BRCA mutant xenografted in SCID/nude mouse assessed as tumor growth inhibition at 3 mg/kg, po bid for 12 days co-administered with TMZ measured up to 9 weeks post-drug administration; type: functional; details: MDA-MB-436, po, 288 h, time 12 day
CAPAN-1 = experiment: Potentiation of anticancer activity against human CAPAN-1 cells harboring BRCA mutant xenografted in SCID/nude mouse assessed as tumor growth inhibition at 3 mg/kg, po bid for 12 days co-administered with TMZ measured up to 9 weeks post-drug administration; type: functional; details: CAPAN-1, po, 288 h, time 12 day
SK-ES1 = experiment: Potentiation of anticancer activity against human SK-ES-1 cells harboring EWSF1 translocation xenografted in SCID/nude mouse assessed as tumor growth inhibition at 3 mg/kg, po bid for 12 days co-administered with TMZ measured up to 9 weeks post drug administration; type: functional; details: 288 h, time 12 day
HEK293 [30] = experiment: Cytotoxicity against HEK293 cells assessed as inhibition of cell viability; type: cell-based; details: human
MDA-MB-436 [31] = experiment: Anticancer activity against human MDA-MB-436 cells harboring BRCA mutant xenografted in SCID/nude mouse assessed as tumor growth regression at 50 mg/kg, po bid and measured up to 5 weeks post-drug administration; type: functional; details: MDA-MB-436, po, 840 h, time weeks <=5
[32] = Toxicity in SCID/nude mouse xenografted with human MDA-MB-436 cells harboring BRCA mutant assessed as body weight loss at 50 mg/kg, po bid; type: organism-based; details: in vivo

SMILES | inhibition [1] [%] | IC50 [14] [nM] | IC50 [15] [nM] | IC50 (MDA-MB-436 [16]) [nM] | IC50 (MDA-MB-436 [17]) [nM] | other results
Cn1ncnc1[C@H]1c2n[nH]c(=O)c3cc(F)cc(c23)N[C@@H]1c1ccc(F)cc1 [TALAZOPARIB] | 91 | – | – | – | – | Activity (MCF7): 98%; Activity (HEK293 [2]): 95%; inhibition in vivo at 0.15 mg/kg (MDA-MB-436 [3]): 65%; Activity [4]: 10%; Activity [5]: Toxic; Activity [6]: Toxic; Activity [7]: Toxic; Activity [8]: Toxic; Activity [9]: Toxic; Activity [10]: Toxic; Activity [11]: Non-Toxic; Activity [12]: Non-Toxic; Activity [13]: Non-Toxic
CNCc1ccc(-c2[nH]c3cc(F)cc4c3c2CCNC4=O)cc1 [RUCAPARIB] | – | – | – | – | – | inhibition in vivo at 3 mg/kg (MDA-MB-436 [29]): 95%; inhibition in vivo at 3 mg/kg (CAPAN-1): 46%; inhibition in vivo at 3 mg/kg (SK-ES1): 20.6%
N#Cc1ccc(N2CCN([C@H]3C=C(c4cc5c(N)cc(F)cc5c(=O)[nH]4)CC3)CC2)c(F)c1 | 89 | 0.9 | 2.6 | 0.06 | 0.05 | –
N#Cc1ccc(N2CCN([C@H]3C=C(c4cc5ncccc5c(=O)[nH]4)CC3)CC2)nc1 | 92 | 1 | 16.6 | 1.1 | 0.05 | –
N#Cc1ccc(N2CCN([C@@H]3C=C(c4cc5c(N)cccc5c(=O)[nH]4)CC3)CC2)cc1 | 83 | 2.5 | 167 | – | – | –
N#Cc1ccc(N2CCN([C@H]3C=C(c4cc5c(N)cccc5c(=O)[nH]4)CC3)CC2)cc1 | 92 | 0.6 | 1.5 | 0.109 | 0.005 | –
O=C(c1cc(Cc2n[nH]c(=O)c3ccccc23)ccc1F)N1CCN(C(=O)C2CC2)CC1 [OLAPARIB] | – | – | – | – | – | inhibition in vivo at 50 mg/kg (MDA-MB-436 [31]): 40%; Activity [32]: 10%; inhibition in vivo at 3 mg/kg (MDA-MB-436 [29]): 39%; inhibition in vivo at 3 mg/kg (CAPAN-1): 49%; inhibition in vivo at 3 mg/kg (SK-ES1): 39.5%
N#Cc1ccc(N2CCN([C@H]3C=C(c4cc5ncc(F)cc5c(=O)[nH]4)CC3)CC2)cc1 | 91 | 0.9 | 26.9 | 0.17 | 0.007 | –

Further lines, with some results ahead:

inhibition [1] [%] | IC50 [14] [nM] | IC50 [15] [nM] | SMILES | IC50 (MDA-MB-436 [16]) [nM] | IC50 (MDA-MB-436 [17]) [nM] | other results
54 | 0.4 | 4.6 | NC(=O)c1ccc(N2CCN(CCCc3cc4c(N)cc(F)cc4c(=O)[nH]3)CC2)cc1 | 1.48 | 0.33 | –
92 | 1 | 1.3 | N#Cc1ccc(N2CCN([C@H]3C=C(c4cc5c(N)cc(F)cc5c(=O)[nH]4)CC3)CC2)cc1 | 0.073 | 0.0016 | Tmax [18]: 4.8 min; Tmax [19]: 15 min; Cmax [20]: 11 µM; Cmax [21]: 19 µM; AUC(0-t) at 24 h [22]: 18 µM·h; AUC(0-t) at 24 h [23]: 106 µM·h; half-life [24]: 132 min; clearance [25]: 2.2 mL/min/kg; Vd [26]: 0.4 L/kg; bioavailability [27]: 59%; Activity (MCF7): 36%; Activity (HEK293 [2]): 65%; inhibition in vivo at 1.5 mg/kg (MDA-MB-436 [28]): 94%
93 | 0.6 | 7.2 | N#Cc1ccc(N2CCN(CCCc3cc4c(N)cccc4c(=O)[nH]3)CC2)cc1 | 0.02 | 0.001 | –
86 | 0.6 | 3.9 | N#Cc1ccc(N2CCN(CCCc3cc4c(N)cc(F)cc4c(=O)[nH]3)CC2)cc1 | 0.015 | 0.0006 | Tmax [18]: 4.8 min; Tmax [19]: 15 min; Cmax [20]: 3.7 µM; Cmax [21]: 1.5 µM; AUC(0-t) at 24 h [22]: 2.4 µM·h; AUC(0-t) at 24 h [23]: 1.9 µM·h; half-life [24]: 66 min; clearance [25]: 17 mL/min/kg; Vd [26]: 0.8 L/kg; bioavailability [27]: 8%; Activity (MCF7): 23%; Activity (HEK293 [30]): Non-Toxic; inhibition in vivo at 1.5 mg/kg (MDA-MB-436 [28]): 29%
68 | 0.9 | 9.5 | Nc1cc(F)cc2c(=O)[nH]c(CCCN3CCN(c4ccc(F)cc4)CC3)cc12 | 1.13 | 0.05 | –
– | 5.6 | 58 | N#Cc1ccc(N2CCN([C@@H]3C=C(c4cc5c(N)cc(F)cc5c(=O)[nH]4)CC3)CC2)c(F)c1 | – | – | –
40 | 5 | 200 | N#Cc1ccc(N2CCN([C@@H]3C=C(c4cc5c(N)cc(F)cc5c(=O)[nH]4)CC3)CC2)cc1 | – | – | –
62 | 0.8 | 10.8 | CNC(=O)c1ccc(N2CCN(CCCc3cc4c(N)cc(F)cc4c(=O)[nH]3)CC2)cc1 | 0.35 | 0.01 | –
